Experimental data published in patent publication US12281084B2, “Acetyl-CoA synthetase 2 (ACSS2) inhibitors and methods using same” (The Wistar Institute, priority 2019, dated 2025).

How the values were obtained:
[1] = tested on: SKBr3 cells; experiment: 13C2-acetate tracing in SKBr3 cells; type: cell-based, human; details: 100 μM 13C2-acetate, 24 hr, N10 or H1 (FIG. 2B)
Description: (§1) All metabolomic experiments were performed in serum-like modified Eagle's medium (SMEM). SMEM contains 54 different nutrients that are found in the bloodstream at concentrations that are physiologically relevant to humans. SMEM was supplemented with 10% or 1% fetal bovine serum (FBS; Life Technologies). Cells were grown in normoxia (atmospheric oxygen) or hypoxia (1% oxygen) while being incubated in uniformly labeled ^13C2-acetate (0.100 mM; Cambridge Isotope Laboratories). Lengths of incubation are described in the figure legends. For extraction of metabolites from cultured cells, SMEM medium was aspirated and cells were washed once in ice-cold PBS. Metabolites were extracted by adding a solution of LC-MS grade methanol/acetonitrile/water (5:3:2) to the well. […]
(§2) LC-MS analysis was performed on a Q Exactive Hybrid Quadrupole-Orbitrap HF-X MS (ThermoFisher Scientific) equipped with a HESI II probe and coupled to a Vanquish Horizon UHPLC system (ThermoFisher Scientific). […] Samples were analyzed in full MS scan with polarity switching at scan range 65 to 975 m/z; 120,000 resolution; automated gain control (AGC) target of 1E6; and maximum injection time (max IT) of 100 milliseconds. Identification and quantitation of metabolites was performed using an annotated compound library and TraceFinder 4.1 software. […]

[2] = tested on: BT474 cells; experiment: 13C2-acetate tracing in BT474 cells; type: cell-based, human
Description: as §1, with “well. Plates were incubated at 4° C. for 5 minutes on a rocker and then the extraction solution was collected. The metabolite extract was cleared by centrifugation at 15,000×g for 10 minutes at 4° C. Supernatants were transferred to LC-MS silanized glass vials with PTFE caps and either run immediately on the LC-MS or stored at −80° C.” for “well.”
as §2
The ^13C2-acetate tracer studies were repeated in BT474 and MDA-MB-468 cells and polar metabolites were isolated in order to analyze carbon-13 labeling of the cytosolic metabolite UDP-N-acetylglucosamine (UDP-GlcNAc) and the mitochondrial metabolite citrate. Citrate is a readout of ACSS1 and ACSS3 activity in the cells since they are the mitochondria localized AcCoA synthetase family members (FIG. 11A). […]

**Q.** With `CCn1c(C(O)(c2ccccc2)c2ccccc2)nc2ccc(C(=O)NC[C@@H](C)O)cc21` [VY-3-135, (R)-1-ethyl-2-(hydroxydiphenylmethyl)-N-(2-hydroxypropyl)-1H-benzo[d]imidazole-6-carboxamide] as the compound, how does the “fatty acid synthesis from acetate (13C2-acetate labeling of palmitate)” value [1] read?
**A.** completely blocked fatty acid synthesis from acetate

**Q.** What about the “incorporation of 13C2-acetate into UDP-GlcNAc” value ([2]; BT474 cells (FIG. 11C)) of the same compound?
**A.** able to block incorporation of ^13C2-acetate into UDP-GlcNAc to nearly the levels of unlabeled cells

**Q.** And the “incorporation of 13C2-acetate into citrate” value ([2]; BT474 cells, H1, 24 hr (FIG. 2D), readout of ACSS1 and ACSS3)?
**A.** did not decrease incorporation of ^13C2-acetate into citrate

**Q.** And the “use of acetate as a substrate for fatty acid synthesis (13C2-acetate into palmitate)” value ([2]; BT474 cells, hypoxia and low lipid medium, 24 hours (FIG. 2C))?
**A.** markedly inhibits the use of acetate as a substrate for fatty acid synthesis at low nanomolar concentrations
